The values below are quoted from earlier work in patent publication US20040067963A1, “Methods to prevent or ameliorate trauma-related psychological disorders” (University of Florida, priority 2002, published 2004).

The test system of data set [1] is patients with combat-related PTSD. As to conditions: 301 patients, by week 6 of treatment, normal to upper range of usual antidepressant doses.
Data set [2] concerns patients with HRV parameters indicating autonomic dysregulation characteristic of PTSD. As to conditions: 16 patients, 20-60 mg of fluoxetine, vs controls.
Data set [3] concerns PTSD in 53 civilians. As to conditions: up to 60 mg/day.
Data set [4] has as its system outpatients with PTSD. The conditions noted are these: 12 week trial, 187 outpatients with PTSD, primarily female victims of sexual assault.

For `CNCCC(Oc1ccc(C(F)(F)F)cc1)c1ccccc1` (centres unmarked) [fluoxetine], the “total Treatment Outcome PTSD rating scale score, change from baseline vs placebo” value in data set [1] was “statistically significant improvement from baseline”. For the same compound, the “heart rate variability (HRV)” value in data set [2] is recorded as “significantly higher HRV than controls”. Further, the “effect on symptom severity vs placebo” value in data set [3] (by week 2-4) is “significantly more effect on symptom severity than placebo”. In data set [3] (by week 12), the “effectiveness on most measures, including disability improvement, vs placebo” value is “more effective on most measures”.
For the compound `CN[C@H]1CC[C@@H](c2ccc(Cl)c(Cl)c2)c2ccccc21` [sertraline], the “efficacy compared with placebo” value in data set [4] is “significant superiority”.
